Experimental data taken from patent US10968462B2, “Plants having increased tolerance to herbicides” (BASF AGRO B.V., priority 2013, dated 2021).

Test system: transgenic T2 soybean plants
Assay: Soybean greenhouse spray test, T2 plants at V2-V3 stage, injury 0-9 point scale 1 or 2 weeks after treatment (Tables 7C-7E)
Format: in vivo, Glycine max
Conditions: 2 week after treatment
Experimental: Soybean cv Jake was transformed as previously described by Siminszky et al., Phytochem Rev. 5:445-458 (2006). After regeneration, transformants were transplanted to soil in small pots, placed in growth chambers (16 hr day/8 hr night; 25° C. day/23° C. night; 65% relative humidity; 130-150 microE m-2 s-1) and subsequently tested for the presence of the T-DNA via Taqman analysis. After a few weeks, healthy, transgenic positive, single copy events were transplanted to larger pots and allowed to grow in the growth chamber. An optimal shoot for cutting was about 3-4 inches tall, with at least two nodes present. Each cutting was taken from the original transformant (mother plant) and dipped into rooting hormone powder (indole-3-butyric acid, IBA). The cutting was then placed in oasis wedges inside a bio-dome. The mother plant was taken to maturity in the greenhouse and harvested for seed. Wild type cuttings were also taken simultaneously to serve as negative controls. The cuttings were kept in the bio-dome for 5-7 days and then transplanted to 3 inch pots and then acclimated in the growth chamber for two more days. […] Other herbicides, such as AHAS (ALS—Acetolactate Synthase) inhibiting herbicides were also tested in a similar fashion for confirming cross resistance to other modes of action: Tritosulfuron, Florasulam, Metsulfuron, Rimsulfuron. Herbicide injury evaluations were taken at 2, 7, 14 and 21 days after treatment.
• 0 No Injury • 1 Minimal injury, only a few patches of leaf injury or chlorosis. • 2 Minimal injury with slightly stronger chlorosis. Overall growth points remain undamaged. • 3 Slightly stronger injury on secondary leaf tissue, but primary leaf and growth points are still undamaged. • 4 Overall plant morphology is slightly different, some chlorosis and necrosis in secondary growth points and leaf tissue. Stems are intact. Regrowth is highly probable within 1 week. • 5 Overall plant morphology is clearly different, some chlorosis and necrosis on a few leaves and growth points, but primary growth point is intact. Stem tissue is still green. Regrowth is highly probably within 1 week. • 6 Strong injury can be seen on the new leaflet growth. Plant has a high probability to survive only through regrowth at different growth points. Most of the leaves are chlorotic/necrotic but stem tissue is still green. May have regrowth but with noticeable injured appearance. • 7 Most of the active growth points are necrotic. There may be a single growth point that could survive and may be partially chlorotic or green and partially necrotic. Two leaves may still be chlorotic with some green; the rest of the plant including stem is necrotic. • 8 Plant will likely die, and all growth points are necrotic. One leaf may still be chlorotic with some green. The remainder of the plant is necrotic. • 9 Plant is dead. • * Not tested

COc1nc(NC(=O)NS(=O)(=O)c2ccccc2C(F)(F)F)nc(C(F)(F)F)n1 [Tritosulfuron]
injury on a 0-9 point scale (Bradi_1g07930.1 (Event 1), 4.375 g ai/ha): 1.5
injury on a 0-9 point scale (Bradi_1g07930.1 (Event 1), 8.75 g ai/ha): 0.5
injury on a 0-9 point scale (Bradi_1g07930.1 (Event 1), 17.5 g ai/ha): 1.7
injury on a 0-9 point scale (Bradi_1g07930.1 (Event 1), 35 g ai/ha): 2.3
injury on a 0-9 point scale (Bradi_1g07930.1 (Event 1), 70 g ai/ha): 1.5
injury on a 0-9 point scale (Bradi_1g07930.1 (Event 1), 140 g ai/ha): 0.3
injury on a 0-9 point scale (R128A_F420V (Event 1), 4.375 g ai/ha): 5.3
injury on a 0-9 point scale (R128A_F420V (Event 1), 8.75 g ai/ha): 6.0
injury on a 0-9 point scale (R128A_F420V (Event 1), 17.5 g ai/ha): 7.0
injury on a 0-9 point scale (R128A_F420V (Event 1), 35 g ai/ha): 7.0
injury on a 0-9 point scale (R128A_F420V (Event 1), 70 g ai/ha): 7.0
injury on a 0-9 point scale (R128A_F420V (Event 1), 140 g ai/ha): 6.5
injury on a 0-9 point scale (R128A_F420V (Event 2), 4.375 g ai/ha): 6.0
injury on a 0-9 point scale (R128A_F420V (Event 2), 8.75 g ai/ha): 6.5
injury on a 0-9 point scale (R128A_F420V (Event 2), 17.5 g ai/ha): 7.0
injury on a 0-9 point scale (R128A_F420V (Event 2), 35 g ai/ha): 7.0
injury on a 0-9 point scale (R128A_F420V (Event 2), 70 g ai/ha): 7.0
injury on a 0-9 point scale (R128A_F420V (Event 2), 140 g ai/ha): 8.0
injury on a 0-9 point scale (R128A_F420V + Bradi_1g07930.1 (Event 1), 4.375 g ai/ha): 0.3
injury on a 0-9 point scale (R128A_F420V + Bradi_1g07930.1 (Event 1), 8.75 g ai/ha): 0.3
injury on a 0-9 point scale (R128A_F420V + Bradi_1g07930.1 (Event 1), 17.5 g ai/ha): 1.5
injury on a 0-9 point scale (R128A_F420V + Bradi_1g07930.1 (Event 1), 35 g ai/ha): 2.0
injury on a 0-9 point scale (R128A_F420V + Bradi_1g07930.1 (Event 1), 70 g ai/ha): 2.7
injury on a 0-9 point scale (R128A_F420V + Bradi_1g07930.1 (Event 1), 140 g ai/ha): 1.3
injury on a 0-9 point scale (R128A_F420V + Bradi_1g07930.1 (Event 2), 4.375 g ai/ha): 1.0
injury on a 0-9 point scale (R128A_F420V + Bradi_1g07930.1 (Event 2), 8.75 g ai/ha): 2.3
injury on a 0-9 point scale (R128A_F420V + Bradi_1g07930.1 (Event 2), 17.5 g ai/ha): 1.5
injury on a 0-9 point scale (R128A_F420V + Bradi_1g07930.1 (Event 2), 35 g ai/ha): 1.0
injury on a 0-9 point scale (R128A_F420V + Bradi_1g07930.1 (Event 2), 70 g ai/ha): 3.0
injury on a 0-9 point scale (R128A_F420V + Bradi_1g07930.1 (Event 2), 140 g ai/ha): 3.0
injury on a 0-9 point scale (wild type, 4.375 g ai/ha): 8.0
injury on a 0-9 point scale (wild type, 8.75 g ai/ha): 8.0
injury on a 0-9 point scale (wild type, 17.5 g ai/ha): 8.0
injury on a 0-9 point scale (wild type, 35 g ai/ha): 8.3
injury on a 0-9 point scale (wild type, 70 g ai/ha): 8.3
injury on a 0-9 point scale (wild type, 140 g ai/ha): 8.3

CCS(=O)(=O)c1cccnc1S(=O)(=O)NC(=O)Nc1nc(OC)cc(OC)n1 [Rimsulfuron]
injury on a 0-9 point scale (Bradi_1g07930.1 (Event 1), 10 g ai/ha): 6.0
injury on a 0-9 point scale (Bradi_1g07930.1 (Event 1), Rimsulfuron 1.25 g ai/ha): 6.0
injury on a 0-9 point scale (Bradi_1g07930.1 (Event 1), Rimsulfuron 2.5 g ai/ha): 6.0
injury on a 0-9 point scale (Bradi_1g07930.1 (Event 1), Rimsulfuron 5 g ai/ha): 6.0
injury on a 0-9 point scale (R128A_F420V (Event 1), 10 g ai/ha): 7.5
injury on a 0-9 point scale (R128A_F420V (Event 1), Rimsulfuron 1.25 g ai/ha): 6.5
injury on a 0-9 point scale (R128A_F420V (Event 1), Rimsulfuron 5 g ai/ha): 7.0
injury on a 0-9 point scale (R128A_F420V (Event 2), 10 g ai/ha): 7.0
injury on a 0-9 point scale (R128A_F420V (Event 2), Rimsulfuron 1.25 g ai/ha): 6.0
injury on a 0-9 point scale (R128A_F420V (Event 2), Rimsulfuron 2.5 g ai/ha): 7.0
injury on a 0-9 point scale (R128A_F420V (Event 2), Rimsulfuron 5 g ai/ha): 7.0
injury on a 0-9 point scale (R128A_F420V + Bradi_1g07930.1 (Event 1), 10 g ai/ha): 4.3
injury on a 0-9 point scale (R128A_F420V + Bradi_1g07930.1 (Event 1), Rimsulfuron 1.25 g ai/ha): 4.0
injury on a 0-9 point scale (R128A_F420V + Bradi_1g07930.1 (Event 1), Rimsulfuron 2.5 g ai/ha): 3.5
injury on a 0-9 point scale (R128A_F420V + Bradi_1g07930.1 (Event 1), Rimsulfuron 5 g ai/ha): 3.3
injury on a 0-9 point scale (R128A_F420V + Bradi_1g07930.1 (Event 2), 10 g ai/ha): 5.0
injury on a 0-9 point scale (R128A_F420V + Bradi_1g07930.1 (Event 2), Rimsulfuron 1.25 g ai/ha): 3.0
injury on a 0-9 point scale (R128A_F420V + Bradi_1g07930.1 (Event 2), Rimsulfuron 2.5 g ai/ha): 4.0
injury on a 0-9 point scale (R128A_F420V + Bradi_1g07930.1 (Event 2), Rimsulfuron 5 g ai/ha): 4.5
injury on a 0-9 point scale (wild type, 10 g ai/ha): 8.5
injury on a 0-9 point scale (wild type, Rimsulfuron 1.25 g ai/ha): 8.0
injury on a 0-9 point scale (wild type, Rimsulfuron 2.5 g ai/ha): 8.5
injury on a 0-9 point scale (wild type, Rimsulfuron 5 g ai/ha): 8.3
